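Five concentrations, 48 hours, 96-well plates. The concentration for 50% growth inhibition is given as GI50.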 Calls of active or inactive are those of the source. Cut-off read from the data, not from the text of the source: active = GI50 up to about 1.1 µM and inactive = higher.

Among the test systems are SF-295; OVCAR-4; DU-145; MDA-MB-231; A549; UACC-257; ACHN; OVCAR-8; UO-31; HT-29; 786-0; HCT-116; NCI-H522; HCC 2998; TK-10; SNB-75; OVCAR-5; MOLT-4; COLO 205; CCRF-CEM.
Holding throughout (assay): NCI anticancer screen, dose series, 48 h

Consider `COC(=O)c1ccc(Cc2cc(Cc3ccc(C(=O)OC)cc3)cc(Cc3ccc(C(=O)OC)cc3)c2)cc1`, for which the GI50 in the experiment with SF-295 was > 25 µM (inactive); in the experiment with OVCAR-4, 16.5 µM (inactive); in the experiment with DU-145 it was > 25 µM (inactive); with MDA-MB-231, > 25 µM (inactive); with A549, > 25 µM (inactive); with UACC-257, > 25 µM (inactive). Further, the GI50 with ACHN, with OVCAR-8, in the experiment on UO-31, in the experiment on HT-29, with 786-0 and with HCT-116 was > 25 µM (inactive) in each case. Further, the GI50 with NCI-H522, in the experiment with HCC 2998, in the experiment with TK-10, in the experiment on SNB-75, with OVCAR-5 and in the experiment with MOLT-4 was > 25 µM (inactive) in each case.
For `NC(=O)C[S+]([O-])CC(N)C(=O)O` (centres undefined), the GI50 in the experiment on SF-295, with OVCAR-4, in the experiment with DU-145, in the experiment on MDA-MB-231, in the experiment on A549 and with UACC-257 was > 100 µM (inactive) each time. Besides, the GI50 with ACHN, in the experiment on OVCAR-8, in the experiment with UO-31, with HT-29, in the experiment with 786-0 and with HCT-116 was > 100 µM (inactive) throughout. Besides, the GI50 with NCI-H522, in the experiment on HCC 2998, in the experiment on TK-10, in the experiment on SNB-75, in the experiment with OVCAR-5 and in the experiment on MOLT-4 was > 100 µM (inactive) in each case.
Regarding `COc1ccc(C(=O)c2[nH]c(Nc3cc(C)ccn3)c(C(=S)Nc3ccccc3)c2N)cc1`, the GI50 was 17.9 µM (inactive) with SF-295; 10.9 µM (inactive) in the experiment with OVCAR-4; 36.6 µM (inactive) in the experiment with DU-145; 20 µM (inactive) with MDA-MB-231; 23.4 µM (inactive) in the experiment with A549; 15.9 µM (inactive) in the experiment on UACC-257. The GI50 is 30.4 µM (inactive) with ACHN; 17.2 µM (inactive) with OVCAR-8; 19.4 µM (inactive) in the experiment on COLO 205; 21.8 µM (inactive) in the experiment with UO-31; 17.5 µM (inactive) in the experiment on HT-29; 21 µM (inactive) in the experiment with 786-0. The GI50 is 20.7 µM (inactive) with HCT-116; 13.8 µM (inactive) in the experiment on NCI-H522; 17.1 µM (inactive) with HCC 2998; 20 µM (inactive) with TK-10; 20.5 µM (inactive) with SNB-75; 26.1 µM (inactive) with OVCAR-5. Further, the GI50 with MOLT-4 was 23.4 µM (inactive).
`COc1ccccc1-n1c(=O)n(C)c(=O)n1C(C)(C)C`: the GI50 in the experiment on OVCAR-4, in the experiment with DU-145, with MDA-MB-231, with A549, in the experiment on UACC-257 and in the experiment with OVCAR-8 was > 100 µM (inactive) each time. For the same molecule, the GI50 in the experiment with COLO 205, with UO-31, in the experiment with HT-29, with 786-0, with CCRF-CEM and with HCT-116 was > 100 µM (inactive) each time. Also, the GI50 was 29.3 µM (inactive) with NCI-H522; 0.288 µM (active) with HCC 2998; > 100 µM (inactive) with TK-10; > 100 µM (inactive) in the experiment with SNB-75; > 100 µM (inactive) with OVCAR-5; > 100 µM (inactive) with MOLT-4.
On to `Oc1ccc(/C=N/CC2CCCN3CCCCC23)cc1` (centres undefined), for which the GI50 is 26.1 µM (inactive) with SF-295; 17.8 µM (inactive) in the experiment with OVCAR-4; 16 µM (inactive) in the experiment with DU-145; 28.8 µM (inactive) with MDA-MB-231; 27.3 µM (inactive) with A549; 24.3 µM (inactive) with UACC-257. Further, the GI50 with ACHN is 15.5 µM (inactive); with OVCAR-8, 44 µM (inactive); with COLO 205, 27.6 µM (inactive); with UO-31 it was 23.1 µM (inactive); in the experiment with HT-29, 16.6 µM (inactive); in the experiment with 786-0, 17.9 µM (inactive). Besides, the GI50 in the experiment with HCT-116 was 16.7 µM (inactive); in the experiment with NCI-H522 it was 17.9 µM (inactive); with HCC 2998, 20 µM (inactive); in the experiment on TK-10, 23.4 µM (inactive); in the experiment with SNB-75 it was 51.8 µM (inactive); in the experiment with OVCAR-5, 31.3 µM (inactive). In the experiment on MOLT-4, the GI50 was 27.4 µM (inactive).
`CC(N)C(C)Cc1ccccc1` (centres undefined): the GI50 in the experiment on SF-295, with OVCAR-4, in the experiment on DU-145, in the experiment with MDA-MB-231, in the experiment with A549 and with UACC-257 was > 100 µM (inactive) in each case. Moreover, the GI50 in the experiment with ACHN, in the experiment on OVCAR-8, in the experiment with COLO 205, in the experiment on UO-31, in the experiment with HT-29 and in the experiment with 786-0 was > 100 µM (inactive) in each case. Moreover, the GI50 in the experiment on HCT-116, in the experiment with NCI-H522, in the experiment on HCC 2998, in the experiment on TK-10, in the experiment with SNB-75 and in the experiment with OVCAR-5 was > 100 µM (inactive) each time. In the experiment with MOLT-4, the GI50 was > 100 µM (inactive).
Consider `O=C(O)Cc1cccc2c1OC(c1ccccc1)C(C(=O)c1ccccc1)C2=O` (centres undefined), for which the GI50 with SF-295 is 37.4 µM (inactive); in the experiment with DU-145 it was 69 µM (inactive); in the experiment on MDA-MB-231, 32.7 µM (inactive); with A549, 36.3 µM (inactive); with UACC-257, > 100 µM (inactive); in the experiment with ACHN it was 40.3 µM (inactive). For the same molecule, the GI50 in the experiment with OVCAR-8 was 46.6 µM (inactive); with COLO 205, 67.6 µM (inactive); with UO-31, 88.9 µM (inactive); in the experiment on HT-29 it was > 10 µM (inactive); in the experiment on 786-0, 52.5 µM (inactive); in the experiment on CCRF-CEM it was 41.2 µM (inactive). Also, the GI50 with HCT-116 was 33 µM (inactive); in the experiment on NCI-H522, 43.2 µM (inactive); in the experiment with HCC 2998 it was 20.4 µM (inactive); with TK-10, 26.5 µM (inactive); in the experiment with SNB-75 it was 12.2 µM (inactive); in the experiment on OVCAR-5, > 100 µM (inactive). Besides, the GI50 in the experiment with MOLT-4 was 43.1 µM (inactive).
With `CCCCc1ccc(Nc2nc(Cl)c3ncn(C4CC(Oc5ccc(C)cc5)C(COc5ccc(C)cc5)O4)c3n2)cc1` (centres undefined), the GI50 with SF-295, with DU-145, in the experiment on MDA-MB-231, in the experiment on A549, in the experiment with UACC-257 and in the experiment on ACHN was > 100 µM (inactive) in each case. Also, the GI50 with OVCAR-8, in the experiment with COLO 205, with UO-31, in the experiment with HT-29, with 786-0 and in the experiment with CCRF-CEM was > 100 µM (inactive) each time. For the same molecule, the GI50 is > 100 µM (inactive) with HCT-116; > 100 µM (inactive) with NCI-H522; 44.9 µM (inactive) with HCC 2998; > 100 µM (inactive) in the experiment with TK-10; > 100 µM (inactive) in the experiment with SNB-75; > 100 µM (inactive) with OVCAR-5. Further, the GI50 in the experiment on MOLT-4 is > 100 µM (inactive).

(Values after ChEMBL document CHEMBL1201862, “PubChem BioAssay data set” (2004).)
